# According to patent publication US5814649A, “Preventive and remedy for type 1 allergic diseases” (priority 1994, dated 1998):
# Columns and labels:
# [1] = tested on: histamine; test: Plasma histamine level before and after induction of anaphylactic shock by OVA (Example 1); format: in vivo, BN/Crj rats (female); settings: 10 mg/kg orally once a day, ± SD; for Histamine amount, after OVA challenge: day 10, after OVA challenge; for Histamine amount, before OVA challenge: day 10, before OVA challenge
# Protocol: (§1) Using female BN/Crj rats of 7 weeks old, sensitization by OVA was carried out as described below.
# (§2) 10 mg/kg of OVA and 300 mg/kg of aluminum hydroxide (Alum) were intraperitoneally given (10 ml/kg) on the day (day 0) of administration. On day 3, 7 and 9 after the sensitization, blood samples were collected, the serum was separated and IgE concentration was determined. On day 10 after the sensitization, 60 mg/kg of OVA dissolved in physiological saline was given to the rats from the tail vein to cause anaphylactic shock. On the other hand, blood samples were collected at the jugular vein before and after the induction of the anaphylactic shock by OVA, and, after separation of the plasma, histamine level was determined.
# (§3) The drug suspended in 1% carboxymethylcellulose (CMC) was repeatedly given orally once a day from day 0 to 9. […] All animals in each group were weighed in the morning once a week and the drug was given upon the body weights as weighed. To the solvent control group was given a 1% CMC solution. And further, non-medicated groups and non-treated groups were prepared. No treatment was applied to the non-treated group. The test was carried out using 6 rats per group.
# Then, the plasma histamine levels before and after the induction of the anaphylactic shock by OVA on day 10 after OVA sensitization were determined as a parameter for allergic reactions.
# [2] = tested on: OVA-sensitized rat anaphylactic models; test: Survival of OVA-sensitized BN rats after anaphylactic shock induced by OVA (Example 1); format: in vivo, BN/Crj rats (female); settings: for Survival Rate: day 0 to 9, OVA challenge day 10
# Protocol: as §1, §2, §3
# (§4) The effect of the anilide compounds (I) on BN rats was evaluated from the survival rates of BN rats, the IgE levels in the sera and the histamine levels in the plasma before and after the induction of anaphylactic shock by OVA.
# [3] = tested on: IgE; test: Serum IgE level of OVA-sensitized BN rats by sandwich-type ELISA (Example 1); format: in vivo, BN/Crj rats (female); settings: day 9 after OVA sensitization, mean ± SD
# Protocol: as §1, §2, §3, §4
# The IgE level in sera was determined using the homemade sandwich-type ELISA system.
# [4] = tested on: autoimmune diseases such as articular rheumatism, systemic lupus erythematosus and the like; settings: diseased animal models; cited from earlier work
# [5] = after administration; cited from earlier work
# [6] = tested on: mice; settings: cited from earlier work
# [7] = tested on: OVA-sensitized rat anaphylactic models; test: Minimum effective dose of leflunomide: survival of OVA-sensitized BN rats after anaphylactic shock (Example 2); format: in vivo, BN/Crj rats (female); settings: for Survival Rate: day 0 to 9
# Protocol: (§5) Using female BN/Crj rats of 7 weeks old, sensitization by OVA was carried out as described below. 10 mg/kg of OVA and 300 mg/kg of aluminum hydroxide (Alum) were intraperitoneally given on the day (day 0) of administration. Blood samples were collected on day 3, 5, 7 and 9 after the sensitization, the serum was separated and IgE concentration was determined. And, 60 mg/kg of the OVA dissolved in physiological saline was given to the rats from the tail vein to cause anaphylactic shock.
# (§6) The drug suspended in 1% carboxymethylcellulose (CMC) was repeatedly given orally once a day from day 0 to 9. […] All animals in each group were weighed in the morning once a week and the drug was given upon the body weights as weighed. A 1% CMC solution was given to the solvent control group. And further, non-treated group was prepared as control to which no treatment was applied. The test was carried out using 6 rats per group.
# [8] = tested on: IgE; test: Minimum effective dose of leflunomide: serum IgE level of OVA-sensitized BN rats (Example 2); format: in vivo, BN/Crj rats (female); settings: for Serum IgE amount: day 9 after OVA, ± SD
# Protocol: as §5, §6
# [9] = tested on: mast cells; settings: cited from earlier work
# [10] = leflunomide 0.5 mg/kg orally once a day
# [11] = leflunomide 1 mg/kg orally once a day
# [12] = leflunomide 2 mg/kg orally once a day
smiles,measurement,setting,value
"CN(C(=O)C(C#N)C(=O)C1CC1)c1ccc(Cl)cc1 (centres unmarked) [Compound C, 2-cyano-3-cyclopropyl-3-oxo-N-methyl-N-(4-chlorophenyl)-propionamide]","Histamine amount, after OVA challenge",[1],0.1 ± 0.0 µM
same,"Histamine amount, before OVA challenge",[1],0.3 ± 0.2 µM
same,Survival Rate,[2]; 10 mg/kg orally once a day,100%
same,IgE amount in sera,[3]; 10 mg/kg orally once a day,0.5 ± 0.1 µg/mL
C[C@]12C=CC(=O)C=C1CC[C@@H]1[C@@H]2[C@@H](O)C[C@@]2(C)[C@H]1CC[C@]2(O)C(=O)CO [Prednisolone],Survival Rate,[2]; 2 mg/kg orally once a day,0%
same,IgE amount in sera,[3]; 2 mg/kg orally once a day,148.1 ± 72.0 µg/mL
same,IgE amount in sera,"[3]; 2 mg/kg orally once a day, listed as prednisolone",148.1 µg/mL
"C/C(O)=C(\C#N)C(=O)Nc1ccc(C(F)(F)F)cc1 [Compound A, N-(4-trifluoromethylphenyl)-2-cyano-3-hydroxy-crotonamide]","Histamine amount, after OVA challenge",[1],0.1 ± 0.0 µM
same,"Histamine amount, before OVA challenge",[1],0.2 ± 0.1 µM
same,effect on autoimmune diseases,[4],"have an effect on autoimmune diseases such as articular rheumatism, systemic lupus erythematosus and the like"
same,Survival Rate,[2]; 10 mg/kg orally once a day,33%
same,IgE amount in sera,[3]; 10 mg/kg orally once a day,0.3 ± 0.0 µg/mL
"C#CCCC(=O)C(C#N)C(=O)Nc1ccc(C(F)(F)F)cc1 (centres unmarked) [Compound E, 2-cyano-3-oxo-N-[4-(trifluoromethyl)phenyl]-6-heptinamide]","Histamine amount, after OVA challenge",[1],0.1 ± 0.0 µM
same,"Histamine amount, before OVA challenge",[1],0.3 ± 0.1 µM
same,Survival Rate,[2]; 10 mg/kg orally once a day,100%
same,IgE amount in sera,[3]; 10 mg/kg orally once a day,0.4 ± 0.1 µg/mL
"N#Cc1ccc(NC(=O)C(C#N)C(=O)C2CC2)cc1 (centres unmarked) [Compound D, 2-cyano-3-cyclopropyl-3-oxo-(4-cyanophenyl) propionamide]","Histamine amount, after OVA challenge",[1],0.6 ± 0.5 µM
same,"Histamine amount, before OVA challenge",[1],0.4 ± 0.2 µM
same,Survival Rate,[2]; 10 mg/kg orally once a day,100%
same,IgE amount in sera,[3]; 10 mg/kg orally once a day,0.6 ± 0.1 µg/mL
"Cc1oncc1C(=O)Nc1ccc(C(F)(F)F)cc1 [Leflunomide, 5-methylisoxazole-4-carboxylic acid-N-(4-trifluoromethyl) anilide]",conversion to pharmacologically active Compound A,[5],converted to pharmacologically active Compound A as defined above by rapid metabolism after administration
same,LD50 (p.o.),[6],445 mg/kg
same,Survival Rate,[7]; [10],0%
same,survival without anaphylactic shock,[7]; leflunomide 1 mg/kg,all animals survived without any anaphylactic shock
same,Survival Rate,[7]; [11],100%
same,survival without anaphylactic shock,[7]; leflunomide 2 mg/kg,all animals survived without any anaphylactic shock
same,Survival Rate,[7]; [12],100%
same,effect on autoimmune diseases,[4],"have an effect on autoimmune diseases such as articular rheumatism, systemic lupus erythematosus and the like"
same,inhibition of increase in serum IgE level,[8]; after antigen sensitization,can inhibit an increase in the serum IgE level after the antigen sensitization
same,Serum IgE amount,[8]; [10],357.7 ± 119.0 µg/mL
same,Serum IgE amount,"[8]; leflunomide 0.5 mg/kg orally once a day, listed as leflunomide",357.7 µg/mL
same,Serum IgE amount,[8]; [11],0.8 ± 0.1 µg/mL
same,Serum IgE amount,"[8]; leflunomide 1 mg/kg orally once a day, listed as leflunomide",0.8 µg/mL
same,Serum IgE amount,[8]; [12],0.4 ± 0.1 µg/mL
same,Serum IgE amount,"[8]; leflunomide 2 mg/kg orally once a day, listed as leflunomide",0.4 µg/mL
same,survival without anaphylactic shock,[2]; 2 mg/kg,all animals survived without any anaphylactic shock
same,Survival Rate,[2]; 2 mg/kg orally once a day,100%
same,inhibitory effect on histamine-release from mast cells,[9],has an inhibitory effect on histamine-release from mast cells
same,IgE amount in sera,[3]; 2 mg/kg orally once a day,0.4 ± 0.1 µg/mL
same,IgE amount in sera,"[3]; 2 mg/kg orally once a day, listed as leflunomide",0.4 µg/mL
"Cc1cc(NC(=O)C(C#N)C(=O)C2CC2)ccc1C(F)(F)F (centres unmarked) [Compound B, 1-(3-methyl-4-trifluoromethylphenylcarbamoyl)-2-cyclopropyl-2-oxo-propionitrile]","Histamine amount, after OVA challenge",[1],1.3 ± 1.8 µM
same,"Histamine amount, before OVA challenge",[1],0.4 ± 0.1 µM
same,Survival Rate,[2]; 10 mg/kg orally once a day,100%
same,IgE amount in sera,[3]; 10 mg/kg orally once a day,0.6 ± 0.5 µg/mL
